{"source": "ChEMBL document CHEMBL6078721", "about": "“Structurally diverse chromane meroterpenoids from Rhododendron capitatum with multifunctional neuroprotective effects” (Eur J Med Chem, 2025)", "key": {"[1]": {"system": "PC-12", "assay": "Neuroprotective activity against 6-OHDA-induced neurotoxicity in rat PC-12 cells at 5 to 40 uM incubated for 24 hrs by MTT assay", "format": "functional, cell-based", "settings": "dose 5-40 µM"}, "[2]": {"system": "PC-12", "assay": "Neuroprotective activity against H2O2-induced neurotoxicity in rat PC-12 cells at 5 to 40 uM incubated for 24 hrs by MTT assay", "format": "functional, cell-based", "settings": "dose 5-40 µM"}, "[3]": {"system": "BV-2", "assay": "Anti-inflammatory activity against mouse BV-2 cells assessed as inhibition of LPS-induced NO production pretreated for 3 hrs followed by LPS addition measured after 24 hrs by Griess reagent based assay", "format": "functional, cell-based"}, "[4]": {"assay": "Induction of neuronal differentiation in rat PC-12 cells assessed as neurite growth by measuring fold change at 10 uM incubated for 48 hrs in presence of NGF by microscopic analysis relative to NGF", "format": "functional"}, "[5]": {"system": "PC-12", "assay": "Induction of neuronal differentiation in rat PC-12 cells assessed as increase in neurite bearing cells incubated for 48 hrs in presence of NGF by microscopic analysis", "format": "functional, cell-based", "settings": "dose 1-10 µM"}, "[6]": {"system": "PC-12", "assay": "Induction of neuronal differentiation in rat PC-12 cells at 10 uM incubated for 48 hrs by microscopic analysis", "format": "functional, cell-based"}, "[7]": {"assay": "Induction of neuronal differentiation in rat PC-12 cells assessed as neurite growth at 10 uM incubated for 48 hrs in presence of NGF by microscopic analysis (reference value: 8.39 +/- 0.03 %)", "format": "functional"}, "[8]": {"system": "BV-2", "assay": "Anti-inflammatory activity against mouse BV-2 cells assessed as reduction in LPS-induced iNOS expression pretreated for 3 hrs followed by LPS addition measured after 24 hrs by Western blot analysis", "format": "functional, cell-based", "settings": "dose 3-30 µM, time 27.0 hrs"}, "[9]": {"system": "BV-2", "assay": "Anti-inflammatory activity against mouse BV-2 cells assessed as reduction in LPS-induced COX-2 expression pretreated for 3 hrs followed by LPS addition measured after 24 hrs by Western blot analysis", "format": "functional, cell-based", "settings": "dose 3-30 µM, time 27.0 hrs"}, "[10]": {"system": "Caenorhabditis elegans", "assay": "Antioxidant activity in Caenorhabditis elegans CL4176 expressing human amyloid-beta peptide assessed as decrease in ROS level at 50 uM incubated for 7 days by H2DCF-DA probe based analysis relative to control", "format": "functional", "design": "scale not given: the % may be the effect or the level left", "settings": "time 7 day"}, "[11]": {"system": "Caenorhabditis elegans", "assay": "Antialzheimer activity in transgenic Caenorhabditis elegans CL4176 expressing human amyloid-beta peptide assessed as decrease in paralysis rate at 12.5 uM incubated for 14 hrs relative to control", "format": "functional", "design": "scale not given: the % may be the effect or the level left"}, "[12]": {"system": "PC-12", "assay": "Neuroprotective activity against H2O2-induced neurotoxicity in rat PC-12 cells assessed as increase in catalase level at 2.5 to 40 uM by Western blot analysis", "format": "functional, cell-based", "settings": "dose 2.5-40 µM"}, "[13]": {"system": "PC-12", "assay": "Neuroprotective activity against H2O2-induced neurotoxicity in rat PC-12 cells assessed as increase in HO-1 level at 2.5 to 40 uM by Western blot analysis", "format": "functional, cell-based", "settings": "dose 2.5-40 µM"}, "[14]": {"system": "BV-2", "assay": "Anti-inflammatory activity against mouse BV-2 cells assessed as inhibition of LPS-induced NF-kappaB p65 phosphorylation pretreated for 3 hrs followed by LPS addition measured after 24 hrs by Western blot analysis", "format": "functional, cell-based", "settings": "dose 3-30 µM, time 27.0 hrs"}, "[15]": {"system": "BV-2", "assay": "Anti-inflammatory activity against mouse BV-2 cells assessed as inhibition of LPS-induced JNK activation at 30 uM pretreated for 3 hrs followed by LPS addition measured after 24 hrs", "format": "functional, cell-based", "settings": "time 27.0 hrs"}, "[16]": {"system": "BV-2", "assay": "Anti-inflammatory activity against mouse BV-2 cells assessed as reduction in LPS-induced COX-2 expression pretreated for 3 hrs followed by LPS addition measured after 24 hrs by immunofluorescence based analysis", "format": "functional, cell-based", "settings": "dose 3-30 µM"}, "[17]": {"system": "BV-2", "assay": "Anti-inflammatory activity against mouse BV-2 cells assessed as inhibition of LPS-induced NF-kappaB p65 nuclear entry at 3 to 30 uM pretreated for 3 hrs followed by LPS addition measured after 24 hrs by Western blot analysis", "format": "functional, cell-based", "settings": "dose 3-30 µM, time 27.0 hrs"}, "[18]": {"system": "Caenorhabditis elegans", "assay": "Antialzheimer activity in transgenic Caenorhabditis elegans CL4176 expressing human amyloid-beta peptide assessed as decrease in paralysis rate at 25 uM incubated for 14 hrs", "format": "functional, organism-based"}, "[19]": {"system": "PC-12", "assay": "Neuroprotective activity against H2O2-induced neurotoxicity in rat PC-12 cells incubated for 24 hrs by MTT assay", "format": "functional, cell-based", "settings": "dose 5-40 µM"}, "[20]": {"system": "BV-2", "assay": "Anti-inflammatory activity against mouse BV-2 cells assessed as inhibition of LPS-induced p-JNK activation at 30 uM pretreated for 3 hrs followed by LPS addition measured after 24 hrs", "format": "functional, cell-based", "settings": "time 27.0 hrs"}}, "note": "pIC50: −log10 of the molar value. Calls of active or inactive are those of the source. No cut-off for these calls is given here."}
{"molecule": "C=C(C)[C@@H](O)CC[C@@]1(C)[C@@H]2CC[C@]3(C)Oc4cc(C)cc(O)c4[C@H]1[C@H]23", "values": [{"measurement": "Activity", "setting": "[1]", "result": "Active; Capable Of Rescuing Cell Injury To Greater Extent"}]}
{"molecule": "C=C(C)[C@@H]1CC[C@]2(C)Oc3cc(C)cc(O)c3C[C@H]12", "values": [{"measurement": "Activity", "setting": "[2]", "result": "Active; Activity Was Comparable To That Of Ngf"}, {"measurement": "Activity", "setting": "[1]", "result": "Active; Activity Was Comparable To That Of Ngf"}, {"measurement": "pIC50", "setting": "[3]", "result": "< 4.52"}]}
{"molecule": "Cc1cc(O)c2c(c1)O[C@@]1(C)CC[C@H]3O[C@@H]2[C@@H]1C3(C)C", "values": [{"measurement": "Activity", "setting": "[2]", "result": "Active; Activity Was Comparable To That Of Ngf"}, {"measurement": "fold change (FC)", "setting": "[4]", "result": "~3"}, {"measurement": "Activity", "setting": "[1]", "result": "Active; Activity Was Comparable To That Of Ngf"}, {"measurement": "Activity", "setting": "[5]", "result": "Dose-dependent-effect"}, {"measurement": "Activity", "setting": "[6]", "result": "Active"}, {"measurement": "pIC50", "setting": "[3]", "result": "< 4.52"}, {"measurement": "Activity", "setting": "[7]", "result": 21.85, "unit": "%"}]}
{"molecule": "Cc1cc(O)c2c(c1)O[C@@]1(C)CC[C@@H](C(C)(C)O)[C@@H]2C1", "values": [{"measurement": "Activity", "setting": "[1]", "result": "Active; Capable Of Rescuing Cell Injury To Greater Extent"}]}
{"molecule": "C=C(C)[C@@H](O)CC/C(C)=C/CC[C@@]1(C)C=Cc2c(O)cc(C)cc2O1", "values": [{"measurement": "pIC50", "setting": "[3]", "result": 4.60}]}
{"molecule": "CC(C)=CC(=O)C[C@]1(C)Oc2cc(C)cc3c2[C@H]2C[C@](C)(CC[C@H]21)O3", "values": [{"measurement": "Activity", "setting": "[8]", "result": "Active"}, {"measurement": "Activity", "setting": "[2]", "result": "Active; Activity Was Comparable To That Of Ngf"}, {"measurement": "Activity", "setting": "[9]", "result": "Active"}, {"measurement": "Activity", "setting": "[10]", "result": ">=15.2%"}, {"measurement": "Activity", "setting": "[1]", "result": "Active; Activity Was Comparable To That Of Ngf"}, {"measurement": "Activity", "setting": "[11]", "result": "~20", "unit": "%"}, {"measurement": "Activity", "setting": "[12]", "result": "Active; Exhibited More Activity Than That Of Positive Group"}, {"measurement": "Activity", "setting": "[13]", "result": "Active; Exhibited More Activity Than That Of Positive Group"}, {"measurement": "inhibition", "setting": "[14]", "result": "Dose-dependent-effect"}, {"measurement": "inhibition", "setting": "[15]", "result": "Active; Activity Was Comparable To That Of Quercetin"}, {"measurement": "pIC50", "setting": "[3]", "result": 4.80}]}
{"molecule": "COC(C)(C)C/C=C/C(C)=C/CC[C@@]1(C)C=Cc2c(O)cc(C)cc2O1", "values": [{"measurement": "fold change (FC)", "setting": "[4]", "result": "~3"}, {"measurement": "Activity", "setting": "[5]", "result": "Dose-dependent-effect"}, {"measurement": "Activity", "setting": "[6]", "result": "Active"}, {"measurement": "Activity", "setting": "[7]", "result": 22.93, "unit": "%"}]}
{"molecule": "CC(C)=CCC/C(C)=C/CC/C(C)=C/Cc1c(O)cc(C)cc1O", "note": "[GRIFOLIN]", "values": [{"measurement": "Activity", "setting": "[12]", "result": "Active"}, {"measurement": "Activity", "setting": "[13]", "result": "Active"}, {"measurement": "pIC50", "setting": "[3]", "result": 4.72}]}
{"molecule": "CC(C)=CC[C@H](O)/C(C)=C/CC[C@@]1(C)C=Cc2c(O)cc(C)cc2O1", "values": [{"measurement": "Activity", "setting": "[5]", "result": "Dose-dependent-effect"}, {"measurement": "Activity", "setting": "[6]", "result": "Active"}, {"measurement": "pIC50", "setting": "[3]", "result": 4.70}]}
{"molecule": "C/C(=C\\Cc1c(O)cc(C)cc1O)CC/C=C(\\C)CC(=O)CC(C)C", "values": [{"measurement": "pIC50", "setting": "[3]", "result": 4.70}]}
{"molecule": "CC(C)=CC(=O)[C@@H]1[C@H]2c3c(O)cc(C)cc3O[C@@]3(C)CCC[C@]1(C)[C@@H]23", "values": [{"measurement": "Activity", "setting": "[8]", "result": "Dose-dependent-effect; Exhibited More Potency Than Quercetin"}, {"measurement": "Activity", "setting": "[9]", "result": "Dose-dependent-effect; Exhibited More Potency Than Quercetin"}, {"measurement": "Activity", "setting": "[10]", "result": ">=18.7%"}, {"measurement": "Activity", "setting": "[1]", "result": "Active; Activity Was Comparable To That Of Ngf"}, {"measurement": "Activity", "setting": "[16]", "result": "Dose-dependent-effect"}, {"measurement": "inhibition", "setting": "[17]", "result": "Active; Exhibited Mild Inhibition"}, {"measurement": "Activity", "setting": "[18]", "result": "Active; Activity Was Comparable With Quercetin At 50 Um"}, {"measurement": "inhibition", "setting": "[15]", "result": "Active; Activity Was Comparable To That Of Quercetin"}, {"measurement": "Activity", "setting": "[19]", "result": "Dose-dependent-effect; Activity Was Comparable To That Of Ngf"}, {"measurement": "pIC50", "setting": "[3]", "result": 4.76}]}
{"molecule": "C/C(=C\\CC[C@@]1(C)C=Cc2c(O)cc(C)cc2O1)CC(=O)CC(C)C", "values": [{"measurement": "pIC50", "setting": "[3]", "result": 4.67}]}
{"molecule": "C/C(=C/CC/C(C)=C/CC[C@@]1(C)C=Cc2c(O)cc(C)cc2O1)CO", "values": [{"measurement": "pIC50", "setting": "[3]", "result": 4.95}]}
{"molecule": "O=c1c(O)c(-c2ccc(O)c(O)c2)oc2cc(O)cc(O)c12", "note": "[QUERCETIN]", "values": [{"measurement": "pIC50", "setting": "[3]", "result": 4.93}]}
{"molecule": "C/C(=C\\CC/C(C)=C/CC[C@@]1(C)C=Cc2c(O)cc(C)cc2O1)CO", "values": [{"measurement": "Activity", "setting": "[8]", "result": "Dose-dependent-effect"}, {"measurement": "Activity", "setting": "[9]", "result": "Dose-dependent-effect"}, {"measurement": "inhibition", "setting": "[20]", "result": "Active; Exhibited Mild Inhibition"}, {"measurement": "pIC50", "setting": "[3]", "result": 4.80}]}
{"molecule": "COC(C)(C)CC(=O)[C@@H]1[C@H]2c3c(O)cc(C)cc3O[C@@]3(C)CCC[C@]1(C)[C@@H]23", "values": [{"measurement": "Activity", "setting": "[2]", "result": "Active; Activity Was Comparable To That Of Ngf"}, {"measurement": "Activity", "setting": "[1]", "result": "Active; Activity Was Comparable To That Of Ngf"}, {"measurement": "Activity", "setting": "[5]", "result": "Dose-dependent-effect"}, {"measurement": "Activity", "setting": "[6]", "result": "Active"}]}
{"molecule": "Cc1cc(O)c2c(c1)O[C@@]1(C)CCC[C@@]3(C)[C@H](C(=O)CC(C)C)[C@@H]2[C@H]31", "values": [{"measurement": "Activity", "setting": "[2]", "result": "Active"}, {"measurement": "Activity", "setting": "[1]", "result": "Active; Capable Of Rescuing Cell Injury To Greater Extent"}, {"measurement": "Activity", "setting": "[5]", "result": "Dose-dependent-effect"}, {"measurement": "Activity", "setting": "[6]", "result": "Active"}, {"measurement": "pIC50", "setting": "[3]", "result": 4.55}]}
{"molecule": "C=C(C)[C@H](O)CC[C@@]1(C)[C@@H]2CC[C@]3(C)Oc4cc(C)cc(O)c4[C@H]1[C@H]23", "values": [{"measurement": "Activity", "setting": "[2]", "result": "Active; Activity Was Comparable To That Of Ngf"}, {"measurement": "Activity", "setting": "[1]", "result": "Active; Activity Was Comparable To That Of Ngf"}, {"measurement": "pIC50", "setting": "[3]", "result": 4.66}]}
